Experimental data: patent publication US9505745B2, “Enhancer of zeste homolog 2 inhibitors” (GlaxoSmithKline Intellectual Property (No.2) Limited, priority 2013, dated 2016)
Structures can show the parent of a compound that is named as a salt.

Target: EZH2 within the PRC2 complex (Homo sapiens (Human), UniProt Q15910)
Assay: EZH2 methyltransferase SPA, biotinylated histone H3K27 peptide substrate (Assay Protocol 2)
Format: biochemical
Conditions: 3H-SAM, ≦10 nM approaches limit of detection
Procedure: Compounds contained herein were evaluated for their ability to inhibit the methyltransferase activity of EZH2 within the PRC2 complex. Human PRC2 complex was prepared by co-expressing each of the 5 member proteins (FLAG-EZH2, EED, SUZ12, RbAp48, AEBP2) in Sf9 cells followed by co-purification. Enzyme activity was measured in a scintillation proximity assay (SPA) where a tritiated methyl group is transferred from 3H-SAM to a lysine residue on a biotinylated, unmethylated peptide substrate derived from histone H3. The peptides were captured on streptavidin-coated SPA beads and the resulting signal was read on a ViewLux plate reader.
Part A. Compound Preparation
• 4. Prepare 10 mM stock of compounds from solid in 100% DMSO. • 5. Set up an 11-point serial dilution (1:4 dilution, top concentration 10 mM) in 100% DMSO for each test compound in a 384 well plate leaving columns 6 and 18 for DMSO controls. • 6. Dispense 10 nL of compound from the dilution plate into reaction plates (Corning, 384-well polystyrene NBS, Cat#3673). Part B. Reagent Preparation Prepare the following solutions: • 7. 1× Base Buffer, 50 mM Tris-HCl, pH 8, 2 mM MgCl2: Per 1 L of base buffer, combine 1 M Tris-HCl, pH 8 (50 mL), 1 M MgCl2 (2 mL), and distilled water (948 mL). • 8. 1× Assay Buffer: Per 10 mL of 1× Assay Buffer, combine 1× Base Buffer (9.96 mL), 1 M DTT (40 uL), and 10% Tween-20 (1 uL) to provide a final concentration of 50 mM Tris-HCl, pH 8, 2 mM MgCl2, 4 mM DTT, 0.001% Tween-20. • 9. 2× Enzyme Solution: Per 10 mL of 2× Enzyme Solution, combine 1× Assay Buffer (9.99 mL) and 3.24 uM EZH2 5 member complex (6.17 uL) to provide a final enzyme concentration of 1 nM. • 10. SPA Bead Solution: Per 1 mL of SPA Bead Solution, combine Streptavidin coated SPA beads (PerkinElmer, Cat#RPNQ0261, 40 mg) and 1× Assay Buffer (1 mL) to provide a working concentration of 40 mg/mL. • 11. 2× Substrate Solution: Per 10 mL of 2× Substrate Solution, combine 40 mg/mL SPA Bead Solution (375 uL), 1 mM biotinylated histone H3K27 peptide (200 uL), 12.5 uM 3H-SAM (240 uL; 1 mCi/mL), 1 mM cold SAM (57 uL), and 1× Assay Buffer (9.13 mL) to provide a final concentration of 0.75 mg/mL SPA Bead Solution, 10 uM biotinylated histone H3K27 peptide, 0.15 uM 3H-SAM (˜12 uCi/mL 3H-SAM), and 2.85 uM cold SAM. • 12. 2.67× Quench Solution: Per 10 mL of 2.67× Quench Solution, combine 1× Assay Buffer (9.73 mL) and 10 mM cold SAM (267 uL) to provide a final concentration of 100 uM cold SAM. Part C. Assay Reaction in 384-well Grenier Bio-One Plates Compound Addition • 3. Stamp 10 nL/well of 1000× Compound to test wells (as noted above). • 4. Stamp 10 nL/well of 100% DMSO to columns 6 & 18 (high and low controls, respectively). Assay • 10. Dispense 5 uL/well of 1× Assay Buffer to column 18 (low control reactions). • 11. Dispense 5 uL/well of 2× Substrate Solution to columns 1-24 (note: substrate solution should be mixed to ensure homogeneous bead suspension before dispensing into matrix reservoir). • 12. Dispense 5 uL/well of 2× Enzyme Solution to columns 1-17, 19-24. • 13. Incubate the reaction for 60 min at room temperature. Quench • 5. Dispense 6 uL/well of the 2.67× Quench Solution to columns 1-24. • 6. Seal assay plates and spin for ˜1 min at 500 rpm. • 7. Dark adapt plates in the ViewLux instrument for 15-60 min. Read plates • 2. Read the assay plates on the Viewlux Plate Reader utilizing the 613 nm emission filter or clear filter (300 s exposure). Reagent addition can be done manually or with automated liquid handler. Results
Percent inhibition was calculated relative to the DMSO control for each compound concentration and the resulting values were fit using standard IC50 fitting parameters within the ABASE data fitting software package.

Chain of EZH2 within the PRC2 complex (Q15910 whole entry): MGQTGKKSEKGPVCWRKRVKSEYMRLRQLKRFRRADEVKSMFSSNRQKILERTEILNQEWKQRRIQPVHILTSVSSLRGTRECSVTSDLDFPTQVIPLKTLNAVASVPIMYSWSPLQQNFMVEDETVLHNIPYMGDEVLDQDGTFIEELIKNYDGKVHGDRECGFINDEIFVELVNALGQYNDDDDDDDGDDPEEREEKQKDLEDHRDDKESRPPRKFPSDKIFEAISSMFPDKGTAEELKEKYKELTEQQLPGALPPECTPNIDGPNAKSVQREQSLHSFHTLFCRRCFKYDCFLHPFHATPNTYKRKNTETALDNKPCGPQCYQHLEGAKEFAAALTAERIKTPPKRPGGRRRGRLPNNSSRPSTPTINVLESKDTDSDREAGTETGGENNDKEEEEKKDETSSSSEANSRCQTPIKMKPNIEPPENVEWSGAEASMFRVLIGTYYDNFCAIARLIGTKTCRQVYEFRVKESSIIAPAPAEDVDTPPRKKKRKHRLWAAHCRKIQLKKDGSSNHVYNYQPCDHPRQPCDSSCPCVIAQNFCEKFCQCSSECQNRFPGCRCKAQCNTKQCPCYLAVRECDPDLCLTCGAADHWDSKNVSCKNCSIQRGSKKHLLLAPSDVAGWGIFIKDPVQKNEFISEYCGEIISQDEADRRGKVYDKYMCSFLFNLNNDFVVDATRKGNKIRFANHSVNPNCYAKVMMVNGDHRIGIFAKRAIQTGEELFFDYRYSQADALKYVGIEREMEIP
Chain of EZH2 within the PRC2 complex (O75530 whole entry partner): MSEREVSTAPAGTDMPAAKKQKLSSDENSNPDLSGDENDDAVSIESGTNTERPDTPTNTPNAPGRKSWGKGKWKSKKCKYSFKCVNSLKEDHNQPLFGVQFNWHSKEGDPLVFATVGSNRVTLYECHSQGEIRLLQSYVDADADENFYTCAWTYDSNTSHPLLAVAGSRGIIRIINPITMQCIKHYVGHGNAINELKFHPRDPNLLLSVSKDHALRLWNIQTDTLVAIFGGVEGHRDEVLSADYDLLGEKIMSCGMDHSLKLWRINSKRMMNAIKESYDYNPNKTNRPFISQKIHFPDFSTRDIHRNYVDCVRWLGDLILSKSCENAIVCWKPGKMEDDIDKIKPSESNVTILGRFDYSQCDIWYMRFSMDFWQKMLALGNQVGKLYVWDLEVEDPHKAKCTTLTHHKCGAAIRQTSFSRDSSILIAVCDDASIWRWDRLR
Chain of EZH2 within the PRC2 complex (Q15022 whole entry partner): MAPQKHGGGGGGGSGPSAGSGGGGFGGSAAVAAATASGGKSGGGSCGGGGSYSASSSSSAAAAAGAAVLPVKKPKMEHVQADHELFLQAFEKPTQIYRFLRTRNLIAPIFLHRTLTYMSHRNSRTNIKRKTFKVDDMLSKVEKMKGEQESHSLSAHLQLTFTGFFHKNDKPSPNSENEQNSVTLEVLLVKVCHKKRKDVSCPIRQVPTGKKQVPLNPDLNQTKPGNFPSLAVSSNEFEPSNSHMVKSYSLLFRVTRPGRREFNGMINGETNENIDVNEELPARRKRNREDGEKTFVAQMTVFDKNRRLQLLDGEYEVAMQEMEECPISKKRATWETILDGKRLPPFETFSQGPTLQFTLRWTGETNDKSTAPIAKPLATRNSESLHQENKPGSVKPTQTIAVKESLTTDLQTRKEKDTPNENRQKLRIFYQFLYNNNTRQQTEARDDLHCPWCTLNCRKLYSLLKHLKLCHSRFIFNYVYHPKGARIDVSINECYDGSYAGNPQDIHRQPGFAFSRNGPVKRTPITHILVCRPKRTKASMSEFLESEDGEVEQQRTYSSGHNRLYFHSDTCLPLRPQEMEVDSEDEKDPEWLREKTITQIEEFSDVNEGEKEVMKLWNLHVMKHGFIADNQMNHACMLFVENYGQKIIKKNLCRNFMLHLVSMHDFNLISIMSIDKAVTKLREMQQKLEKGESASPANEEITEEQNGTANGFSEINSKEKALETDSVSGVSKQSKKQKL
Chain of EZH2 within the PRC2 complex (Q09028 whole entry partner): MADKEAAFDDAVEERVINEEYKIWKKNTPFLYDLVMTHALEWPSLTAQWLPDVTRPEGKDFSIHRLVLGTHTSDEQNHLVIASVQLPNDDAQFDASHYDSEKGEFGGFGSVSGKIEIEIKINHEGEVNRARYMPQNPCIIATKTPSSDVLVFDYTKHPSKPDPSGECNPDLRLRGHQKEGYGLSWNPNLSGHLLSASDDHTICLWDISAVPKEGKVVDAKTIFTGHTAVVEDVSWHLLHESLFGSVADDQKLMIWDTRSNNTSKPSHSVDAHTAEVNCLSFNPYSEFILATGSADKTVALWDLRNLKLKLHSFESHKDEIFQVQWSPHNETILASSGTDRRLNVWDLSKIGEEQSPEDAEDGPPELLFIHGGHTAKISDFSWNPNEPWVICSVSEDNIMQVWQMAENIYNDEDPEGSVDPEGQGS
Chain of EZH2 within the PRC2 complex (Q6ZN18 whole entry partner): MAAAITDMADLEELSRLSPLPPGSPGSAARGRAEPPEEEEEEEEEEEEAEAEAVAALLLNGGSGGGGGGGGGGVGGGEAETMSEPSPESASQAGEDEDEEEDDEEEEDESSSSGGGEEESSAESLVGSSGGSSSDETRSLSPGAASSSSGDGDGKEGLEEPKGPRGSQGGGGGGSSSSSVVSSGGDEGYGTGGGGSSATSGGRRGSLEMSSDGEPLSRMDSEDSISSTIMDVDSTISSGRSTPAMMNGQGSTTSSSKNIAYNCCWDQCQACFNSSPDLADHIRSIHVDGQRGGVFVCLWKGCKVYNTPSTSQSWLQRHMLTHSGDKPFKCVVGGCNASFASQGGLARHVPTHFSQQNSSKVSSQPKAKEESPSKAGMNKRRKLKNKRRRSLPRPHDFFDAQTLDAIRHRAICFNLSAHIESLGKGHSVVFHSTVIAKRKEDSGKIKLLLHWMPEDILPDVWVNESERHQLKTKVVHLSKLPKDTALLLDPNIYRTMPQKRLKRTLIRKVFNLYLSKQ

IC50 [nM] | SMILES
126 | CCC(CCCN1CCN(C)CC1)c1scc(C(=O)NCc2c(C)cc(C)[nH]c2=O)c1C (centres unmarked) [Example 73, N-((4,6-Dimethyl-2-oxo-1,2-dihydropyridin-3-yl)methyl)-4-methyl-5-(6-(4-methylpiperazin-1-yl)hexan-3-yl)thiophene-3-carboxamide]
16 | CCN(c1sc(Cl)c(C(=O)NCc2c(C)cc(C)[nH]c2=O)c1C)C1CCOCC1 [Example 53, 2-Chloro-N-((4,6-dimethyl-2-oxo-1,2-dihydropyridin-3-yl)methyl)-5-(ethyl(tetrahydro-2H-pyran-4-yl)amino)-4-methylthiophene-3-carboxamide]
16 | CCN(C)[C@H]1CC[C@H](N(CC)c2scc(C(=O)NCc3c(C)cc(C)[nH]c3=O)c2C)CC1 [Example 64, N-((4,6-dimethyl-2-oxo-1,2-dihydropyridin-3-yl)methyl)-5-(ethyl((trans)-4-(ethyl(methyl)amino)cyclohexyl)amino)-4-methylthiophene-3-carboxamide]
50 | CCC(c1scc(C(=O)NCc2c(C)cc(C)[nH]c2=O)c1C)C1CCN(C(=O)OC(C)(C)C)CC1 (centres unmarked) [Example 39, tert-Butyl 4-(1-(4-(((4,6-dimethyl-2-oxo-1,2-dihydropyridin-3-yl)methyl)carbamoyl)-3-methylthiophen-2-yl)propyl)piperidine-1-carboxylate]
501 | Cc1cc(C)c(CNC(=O)c2csc(C(O)[C@H]3CC[C@H](N)CC3)c2C)c(=O)[nH]1 (stereo partly drawn) [Example 37, 5-(((trans)-4-Aminocyclohexyl)(hydroxy)methyl)-N-((4,6-dimethyl-2-oxo-1,2-dihydropyridin-3-yl)methyl)-4-methylthiophene-3-carboxamide]
13 | CCC(c1scc(C(=O)NCc2c(C)cc(C)[nH]c2=O)c1C)[C@H]1CC[C@@H](N(C)C)CC1 (single isomer, unassigned; (-)) [Example 47, (−)-N-((4,6-Dimethyl-2-oxo-1,2-dihydropyridin-3-yl)methyl)-5-(1-((cis)-4-(dimethylamino)cyclohexyl)propyl)-4-methylthiophene-3-carboxamide]
501 | CCN(c1sc(N2CCN(C)CC2)c(C(=O)NCc2c(C)cc(C)[nH]c2=O)c1C)C1CCOCC1 [Example 56, N-((4,6-Dimethyl-2-oxo-1,2-dihydropyridin-3-yl)methyl)-5-(ethyl(tetrahydro-2H-pyran-4-yl)amino)-4-methyl-2-(4-methylpiperazin-1-yl)thiophene-3-carboxamide hydrochloride]
20 | CCC(c1scc(C(=O)NCc2c(C)cc(C)[nH]c2=O)c1C)[C@H]1CC[C@H](N(C)C)CC1 (single isomer, unassigned; (-)) [Example 44, (−)-N-((4,6-Dimethyl-2-oxo-1,2-dihydropyridin-3-yl)methyl)-5-(1-((trans)-4-(dimethylamino)cyclohexyl)propyl)-4-methylthiophene-3-carboxamide]
200 | CCN(c1sc(C2CCN(C(=O)OC(C)(C)C)C2)c(C(=O)NCc2c(C)cc(C)[nH]c2=O)c1C)C1CCOCC1 (centres unmarked) [Example 57, tert-Butyl 3-(3-(((4,6-dimethyl-2-oxo-1,2-dihydropyridin-3-yl)methyl)carbamoyl)-5-(ethyl(tetrahydro-2H-pyran-4-yl)amino)-4-methylthiophen-2-yl)pyrrolidine-1-carboxylate]
631 | CCN(c1sc(C2CCNCC2)c(C(=O)NCc2c(C)cc(C)[nH]c2=O)c1C)C1CCOCC1 [Example 60, N-((4,6-Dimethyl-2-oxo-1,2-dihydropyridin-3-yl)methyl)-5-(ethyl(tetrahydro-2H-pyran-4-yl)amino)-4-methyl-2-(piperidin-4-yl)thiophene-3-carboxamide hydrochloride]
32 | CCN(c1sc(-c2ccco2)c(C(=O)NCc2c(C)cc(C)[nH]c2=O)c1C)C1CCOCC1 [Example 76, N-((4,6-dimethyl-2-oxo-1,2-dihydropyridin-3-yl)methyl)-5-(ethyl(tetrahydro-2H-pyran-4-yl)amino)-2-(furan-2-yl)-4-methylthiophene-3-carboxamide]
100 | CCN(c1sc(-c2cnn(C)c2)c(C(=O)NCc2c(C)cc(C)[nH]c2=O)c1C)C1CCOCC1 [Example 78, N-((4,6-dimethyl-2-oxo-1,2-dihydropyridin-3-yl)methyl)-5-(ethyl(tetrahydro-2H-pyran-4-yl)amino)-4-methyl-2-(1-methyl-1H-pyrazol-4-yl)thiophene-3-carboxamide]
251 | C/C=C(/CCCN1CCN(C)CC1)c1scc(C(=O)NCc2c(C)cc(C)[nH]c2=O)c1C [Example 72, (Z)—N-((4,6-Dimethyl-2-oxo-1,2-dihydropyridin-3-yl)methyl)-4-methyl-5-(6-(4-methylpiperazin-1-yl)hex-2-en-3-yl)thiophene-3-carboxamide]
79 | Cc1cc(C)c(CNC(=O)c2csc(N3CCCC3C3CCNCC3)c2C)c(=O)[nH]1 (centres unmarked) [Example 68, N-((4,6-dimethyl-2-oxo-1,2-dihydropyridin-3-yl)methyl)-4-methyl-5-(2-(piperidin-4-yl)pyrrolidin-1-yl)thiophene-3-carboxamide hydrochloride]
20 | CC[C@@H](c1scc(C(=O)NCc2c(C)cc(C)[nH]c2=O)c1C)N1CCC(N(C)C)CC1 [Example 41, (S)-(−)-N-((4,6-Dimethyl-2-oxo-1,2-dihydropyridin-3-yl)methyl)-5-(1-(4-(dimethylamino)piperidin-1-yl)propyl)-4-methylthiophene-3-carboxamide]
501 | CCN(c1sc(C2CCN(S(C)(=O)=O)CC2)c(C(=O)NCc2c(C)cc(C)[nH]c2=O)c1C)C1CCOCC1 [Example 63, N-((4,6-Dimethyl-2-oxo-1,2-dihydropyridin-3-yl)methyl)-5-(ethyl(tetrahydro-2H-pyran-4-yl)amino)-4-methyl-2-(1-(methylsulfonyl)piperidin-4-yl)thiophene-3-carboxamide]
126 | C=C(c1scc(C(=O)NCc2c(C)cc(C)[nH]c2=O)c1C)C1CCNCC1 [Example 49, N-((4,6-dimethyl-2-oxo-1,2-dihydropyridin-3-yl)methyl)-4-methyl-5-(1-(piperidin-4-yl)vinyl)thiophene-3-carboxamide]
1000 | C/C=C(/CCN1CCOCC1)c1scc(C(=O)NCc2c(C)cc(C)[nH]c2=O)c1C [Example 71, (Z)—N-((4,6-Dimethyl-2-oxo-1,2-dihydropyridin-3-yl)methyl)-4-methyl-5-(5-morpholinopent-2-en-3-yl)thiophene-3-carboxamide]
200 | C/C=C(/CCCN1CCC(N(C)C)CC1)c1scc(C(=O)NCc2c(C)cc(C)[nH]c2=O)c1C [Example 74, (Z)—N-((4,6-Dimethyl-2-oxo-1,2-dihydropyridin-3-yl)methyl)-5-(6-(4-(dimethylamino)piperidin-1-yl)hex-2-en-3-yl)-4-methylthiophene-3-carboxamide formate]

SMILES | IC50 [nM]
CCN(c1scc(C(=O)NCc2c(C)cc(C)[nH]c2=O)c1C)C1CCNCC1F (centres unmarked) [Example 67, N-((4,6-dimethyl-2-oxo-1,2-dihydropyridin-3-yl)methyl)-5-(ethyl(3-fluoropiperidin-4-yl)amino)-4-methylthiophene-3-carboxamide] | 20
